Reference: patent US7842462B2, “Identification of substances that inhibit NEMO oligomerization” (Institut Pasteur, priority 2006, dated 2010)

System: NEMO oligomerization (CFP-NEMO / YFP-NEMO)
Test: FRET between CFP-NEMO and YFP-NEMO in lysates of doubly transfected Nemo-/- MEF cells
Type: cell-based, murine
Details: pECFP-Nemo and pEYFP-Nemo doubly transfected Nemo-/- MEF cells; 30 min incubation with IL-1β (10 ng/ml); excitation 433 nm
Protocol: Rat-1, M319-5b (see supplementary data), 5R fibroblast and wild type, Ikkα^−/−Ikkβ^−/− and Nemo^−/− MEF cells were grown in Dulbecco's modified Eagle's medium supplemented with 10% fetal bovine serum. For 5R cells, 20% 5R conditioned medium was added to fresh culture medium. Transfections using Fugene 6 (Roche) were performed according to the manufacturer protocol using, per well of a 6 well-plate, 2 μg of pECFP-Nemo or pEYFP-Nemo plasmid (single transfection) or 1 μg each (double transfection). For plasmid obtaining, see supplementary data. In NF-κB complementation assays 100 ng of pEF1-lacZ (marker for transfection efficiency) and Igκ-luciferase plasmids were added to the transfection mix. Cell fluorescence was controlled with an Axiovert 200 (Zeiss) inverted microscope one day after transfection.
Cells transfected with the lacZ and the Igκ-luciferase plasmids were trypsinated, pelleted and resuspended in fresh culture medium. Cell suspension was stimulated by IL-1β (BD, Biosciences, 10 ng/ml) or TNFα (BD Biosciences, 20 ng/ml) for 30 min at 37° C. […] Kinase activity in cytosolic extracts or glycerol gradient fractions was detected as described by Yamaoka, S., Courtois, G., Bessia, C., Whiteside, S. T., Weil, R., Agou, F., Kirk, H. E., Kay, R. J. and Israel, A. (1998) Complementation cloning of NEMO, a component of the IkappaB kinase (IKK) complex essential for NF-kappaB activation. […]

IL-1β: pro inflammatory cytokine (BD Biosciences) used as NF-κB pathway activating stimulus
FRET transfer efficiency between CFP and YFP: 21.7%
